Test results as given in patent US5723576A, “Thrombin inhibitors, the preparation thereof and the use thereof for therapeutical, prophylactic and diagnostic applications” (Development Biotechnological Processes S.N.C., priority 1993, dated 1998).
Where two headings read alike, the source gives them in different places. Square brackets hold non-standard residues; d marks the D form. Peptide text beside a SMILES is read from it. 2Nal = N[C@@H](Cc1ccc2ccccc2c1)C(=O)O; hPhe = N[C@@H](CCc1ccccc1)C(=O)O; Cha = N[C@@H](CC1CCCCC1)C(=O)O; Chg = N[C@H](C(=O)O)C1CCCCC1; Aib = CC(C)(N)C(=O)O; βAla = NCCC(=O)O

What was measured:
[1] = molecular target: T1, thrombin (Homo sapiens, UniProt P00734); assay: Inhibition of thrombin-mediated hydrolysis of Chromozym TH (Ki); format: biochemical; settings: read-out: Ki: hydrolysis inhibition constant of a chromogenic substrate
Method: Moreover, the efficacy of the products of the present invention was also evaluated determining the inhibition constants Ki versus thrombin, using chromogenic substrates.
The inhibition of the hydrolysis, mediated by thrombin, of Chromozym TH by the peptides of the present invention was evaluated according to the literature (Stone, S. R., Hofsteenge, J., Biochemistry, 25, 4622, (1986).
°The hydrolysis inhibition constants of a chromogenic substrate ar

[2] = In vitro resistance of the peptides to hydrolysis by plasma proteases; format: in vitro ADME; settings: human plasma from healthy donors, 37° C.; read-out: τp: halving time of the inhibitor concentration in human plasma
Method: (§1) The resistance of the compounds of the present invention versus plasmatic proteases was evaluated in vitro in two groups of tests. In the first one, the resistance to proteolysis of thrombin itself was tested incubating the claimed compounds in the presence of thrombin and analysing the mixture at different times. In the second one, the claimed compounds were incubated in plasma of healthy volunteers and, after filtration of the plasma proteins, the supernatants were analyzed by HPLC and capillary electrophoresis.
In vitro determination of the peptides resistance to hydrolysis by plasma proteases.
[…] of hirunorm-I […], hirunorm-II (569 μg), hirunorm-III (585 μg), were separately incubated with 1600 μL of human plasma from heal thy donors at 37° C. for different times. 50 μL aliquots were added with 200 μL of 100 mN H3 PO4. The supernatants were analyzed at pre-set times by HPLC on a Vydac C18 0.46×25 cm column with a straight acetonitrile gradient containing 0.1% (v/v) of trifluoroacetic acid (phase B) against 0.1% (v/v) aqueous trifluoroacetic acid (phase A), from 5 to 70% in B in 35 min at a flow rate of 1 mL/min, with detection at 210 nm. The eluted peaks were collected and analyzed by capillary electrophoresis on a […]×60 cm fused silica Waters capillary, fitted with a UV detector at 214 nm. The analyses were carried out at a constant voltage of 18 KV, using a buffer 100 mN acid phosphoric for 25 min. The eluted peaks were then analyzed by means of Fab mass spectrometry.
(§2) ^.sctn. The factors tt and tp are the halving times (min) o
(§3) the inhibitor concentrations in the presence of equimolar amounts of
(§4) thrombin, respectively both alone and in human plasma.

[3] = molecular target: T2, human a-thrombin (Homo sapiens, UniProt P00734); assay: In vitro resistance of the peptides to enzyme hydrolysis by thrombin; format: in vitro ADME; settings: Tris/HCl buffer pH 7.8, 37° C.
T2 construct: human a-thrombin
Method: as §1
(§5) In vitro determination of the peptide resistance to enzyme hydrolysis by thrombin.
(§6) 97.2 nmol of hirunorm-I (286 μg), hirunorm-II (285 μg), hirunorm-III (293 μg), were incubated separately with 0.972 nmol of human a-thrombin (35 μg, 3110 Units NIH/mg) in 800 μL of 0.05M Tris/HCl buffer, 0.1M NaCl at pH-7.8 and a temperature of 37° C. 50 μL Aliquots were diluted with 200 μL of 100 mN H3 PO4 and analyzed at pre-set times by capillary electrophoresis on a […] silica Waters capillary, using a Waters Quanta 4000 apparatus fitted with an UV detection at 214 nm. The analyses were carried out at a constant voltage of 18 KV, using a 100 mN phosphoric acid buffer for 25 min. The eluted peaks were collected and analyzed by Fab mass spectrometry.
as §2, §3, §4

[4] = molecular target: T1, thrombin; settings: non covalent 1:1 complex; read-out: Ki of hirudin binding to thrombin; cited from earlier work
[5] = test system: T3, human α-thrombin; assay: In vitro resistance of the peptides to enzyme hydrolysis by thrombin; format: in vitro ADME; settings: isolated enzyme thrombin; human a-thrombin, Tris/HCl buffer pH 7.8, 37° C.; read-out: τt: halving time of the inhibitor concentration in the presence of thrombin alone
T3 construct: human a-thrombin
Method: as §1, §5, §6, §2, §3, §4

Row | Compound | Ki [1] | half-life at 1.21 µM [2] | τt: halving time of the inhibitor concentration in the presence of thrombin alone [3] | Ki [4] | half-life at 121.5 µM [5]
1 | CC[C@H](C)[C@H](NC(=O)[C@H](CCC(=O)O)NC(=O)[C@H](CCC(=O)O)NC(=O)[C@H](Cc1ccc(O)cc1)NC(=O)[C@H](CC(=O)O)NC(=O)CNC(=O)CNC(=O)[C@H](CCc1ccccc1)NC(=O)[C@H](Cc1c[nH]cn1)NC(=O)[C@H](CO)NC(=O)[C@H](CCC(=O)O)NC(=O)[C@@H]1CCCN1C(=O)CCNC(=O)CNC(=O)[C@@H](C)NC(=O)[C@H](CC(=O)O)NC(=O)[C@@H](NC(=O)[C@H](Cc1ccc2ccccc2c1)NC(=O)[C@@H](NC(=O)[C@@H](N)C1CCCCC1)C(C)C)[C@@H](C)O)C(=O)N1CCC[C@H]1C(=O)NC(C)(C)C(=O)NC(C)(C)C(=O)N[C@@H](Cc1ccc(O)cc1)C(=O)N[C@@H](CC1CCCCC1)C(=O)N[C@H](CCC(=O)O)C(=O)O [Hirunorm-V] (H-[Chg]V[2Nal]TD[dA]G[βAla]PESH[hPhe]GGDYEEIP[Aib][Aib]Y[Cha][dE]-OH) | 1 nM |  |  |  | 
2 | CC[C@H](C)[C@H](N)C(=O)N[C@@H](CCCNC(=N)N)C(=O)N[C@@H](Cc1ccccc1)C(=O)N[C@H](C(=O)N[C@@H](CC(=O)O)C(=O)N[C@H](C)C(=O)NCC(=O)NCCC(=O)N1CCC[C@H]1C(=O)N[C@@H](CCC(=O)O)C(=O)N[C@@H](CO)C(=O)N[C@@H](Cc1c[nH]cn1)C(=O)N[C@@H](CCc1ccccc1)C(=O)NCC(=O)NCC(=O)N[C@@H](CC(=O)O)C(=O)N[C@@H](Cc1ccc(O)cc1)C(=O)N[C@@H](CCC(=O)O)C(=O)N[C@@H](CCC(=O)O)C(=O)N[C@H](C(=O)N1CCC[C@H]1C(=O)NC(C)(C)C(=O)NC(C)(C)C(=O)N[C@@H](Cc1ccc(O)cc1)C(=O)N[C@@H](CC1CCCCC1)C(=O)N[C@H](CCC(=O)O)C(=O)O)[C@@H](C)CC)[C@@H](C)O [Hirunorm-II] (HELM PEPTIDE1{I.R.F.T.D.[dA].G.[bAla].P.E.S.H.[O=C([C@H](CCc1ccccc1)N[*:1])[*:2]].G.G.D.Y.E.E.I.P.[Aib].[Aib].Y.[Cha].[dE]}$$$$V2.0) | 2.6 nM | 8 h | > 480 min |  | 
3 | CC[C@H](C)[C@H](N)C(=O)N[C@@H](CCCNC(=N)N)C(=O)N[C@@H](Cc1ccccc1)C(=O)N[C@H](C(=O)N[C@@H](CC(=O)O)C(=O)N[C@H](C)C(=O)NCC(=O)NCCC(=O)N1CCC[C@H]1C(=O)N[C@@H](CCC(=O)O)C(=O)N[C@@H](CO)C(=O)N[C@@H](Cc1c[nH]cn1)C(=O)N[C@@H](CCc1ccccc1)C(=O)NCC(=O)NCC(=O)N[C@@H](CC(=O)O)C(=O)N[C@@H](Cc1ccc(O)cc1)C(=O)N[C@@H](CCC(=O)O)C(=O)N[C@@H](CCC(=O)O)C(=O)N[C@H](C(=O)N1CCC[C@H]1C(=O)NC(C)(C)C(=O)NC(C)(C)C(=O)N[C@@H](Cc1ccc(OP(=O)(O)O)cc1)C(=O)N[C@@H](CC1CCCCC1)C(=O)N[C@H](CCC(=O)O)C(=O)O)[C@@H](C)CC)[C@@H](C)O [Hirunorm-III] (HELM PEPTIDE1{I.R.F.T.D.[dA].G.[bAla].P.E.S.H.[O=C([C@H](CCc1ccccc1)N[*:1])[*:2]].G.G.D.Y.E.E.I.P.[Aib].[Aib].[O=C([C@H](Cc1ccc(OP(=O)(O)O)cc1)N[*:1])[*:2]].[Cha].[dE]}$$$$V2.0) | 1 nM | 8 h | > 480 min |  | 
4 | Hirudin |  |  |  | 0.063 nM | 
5 | CC[C@H](C)[C@H](N)C(=O)N[C@@H](CCCNC(=N)N)C(=O)N[C@@H](Cc1ccc(O)cc1)C(=O)N[C@H](C(=O)N[C@@H](CC(=O)O)C(=O)N[C@H](C)C(=O)NCCC(=O)NCCC(=O)N1CCC[C@H]1C(=O)N[C@@H](CCC(=O)O)C(=O)N[C@@H](CC(N)=O)C(=O)N[C@@H](Cc1c[nH]cn1)C(=O)N[C@@H](CC(N)=O)C(=O)N[C@@H](CC(N)=O)C(=O)NCC(=O)N[C@@H](CC(=O)O)C(=O)N[C@@H](Cc1ccccc1)C(=O)N[C@@H](CCC(=O)O)C(=O)N[C@@H](CCC(=O)O)C(=O)N[C@H](C(=O)N1CCC[C@H]1C(=O)NC(C)(C)C(=O)NC(C)(C)C(=O)N[C@@H](Cc1ccc(O)cc1)C(=O)N[C@@H](CC(C)C)C(=O)N[C@@H](CCC(=O)O)C(=O)O)[C@@H](C)CC)[C@@H](C)O [Hirunorm-I] (HELM PEPTIDE1{I.R.Y.T.D.[dA].[bAla].[bAla].P.E.N.H.N.N.G.D.F.E.E.I.P.[Aib].[Aib].Y.L.E}$$$$V2.0) | 97 nM | 5 h |  |  | > 8 h
6 | CC[C@H](C)[C@H](NC(=O)[C@H](CCC(=O)O)NC(=O)[C@H](CCC(=O)O)NC(=O)[C@H](Cc1ccc(O)cc1)NC(=O)[C@H](CC(=O)O)NC(=O)CNC(=O)CNC(=O)[C@H](CCc1ccccc1)NC(=O)[C@H](Cc1c[nH]cn1)NC(=O)[C@H](CO)NC(=O)[C@H](CCC(=O)O)NC(=O)[C@@H]1CCCN1C(=O)CCNC(=O)CNC(=O)[C@@H](C)NC(=O)[C@H](CC(=O)O)NC(=O)[C@@H](NC(=O)[C@H](Cc1ccc2ccccc2c1)NC(=O)[C@H](CCCNC(=N)N)NC(=O)[C@@H](N)C1CCCCC1)[C@@H](C)O)C(=O)N1CCC[C@H]1C(=O)NC(C)(C)C(=O)NC(C)(C)C(=O)N[C@@H](Cc1ccc(O)cc1)C(=O)N[C@@H](CC1CCCCC1)C(=O)N[C@H](CCC(=O)O)C(=O)O [Hirunorm-IV] (H-[Chg]R[2Nal]TD[dA]G[βAla]PESH[hPhe]GGDYEEIP[Aib][Aib]Y[Cha][dE]-OH) | 2.6 nM |  |  |  | 
